Activity calls are given as the source filed them. The calls are words filed in the database; no cut-off is given here.
Columns and labels:
HCC827 = experiment: cells; details: Homo sapiens, HCC827, 72 h
Description: Anticancer activity against human HCC827 cells assessed as inhibition of cell proliferation incubated for 72 hrs by MTT assay

CWR22R = experiment: cells; details: Homo sapiens, 22Rv1, 72 h
Description: Anticancer activity against human 22Rv1 cells assessed as inhibition of cell proliferation incubated for 72 hrs by MTT assay

DU-145 = experiment: cells; details: Homo sapiens, DU-145, 72 h
Description: Anticancer activity against human DU-145 cells assessed as inhibition of cell proliferation incubated for 72 hrs by MTT assay

NCI-H1975 = experiment: cells; details: Homo sapiens, NCI-H1975, 72 h
Description: Anticancer activity against human NCI-H1975 cells assessed as inhibition of cell proliferation incubated for 72 hrs by MTT assay

PC-9 = experiment: cells; details: Homo sapiens, PC-9, 72 h
Description: Anticancer activity against human PC-9 cells assessed as inhibition of cell proliferation incubated for 72 hrs by MTT assay

A549 = experiment: cells; details: Homo sapiens, A549, 72 h
Description: Anticancer activity against human A549 cells assessed as inhibition of cell proliferation incubated for 72 hrs by MTT assay

NCI-H460 = experiment: cells; details: Homo sapiens, NCI-H460, 72 h
Description: Anticancer activity against human NCI-H460 cells assessed as inhibition of cell proliferation incubated for 72 hrs by MTT assay

PC-3 = experiment: cells; details: Homo sapiens, PC-3, 72 h
Description: Anticancer activity against human PC-3 cells assessed as inhibition of cell proliferation incubated for 72 hrs by MTT assay

C6661 = experiment: Anticancer activity against human C666-1 cells assessed as inhibition of cell proliferation incubated for 72 hrs by MTT assay; assay type: functional, cell-based; details: C6661, 72 h
[1] = Cytotoxicity against HEK293 cells assessed as inhibition of cell proliferation incubated for 72 hrs by MTT assay; assay type: toxicity, cell-based; details: human
HGC-27 [2] = experiment: Anticancer activity against human HGC-27 cells assessed as inhibition of cell proliferation incubated for 72 hrs by MTT assay; assay type: functional, cell-based; details: HGC-27, 72 h
HepG2 = experiment: Anticancer activity against human HepG2 cells assessed as inhibition of cell proliferation incubated for 72 hrs by MTT assay; assay type: functional, cell-based; details: HepG2, 72 h
[3] = Cytotoxicity against human L02 cells assessed as inhibition of cell proliferation incubated for 72 hrs by MTT assay; assay type: toxicity, cell-based
MCF7 = experiment: Anticancer activity against human MCF7 cells assessed as inhibition of cell proliferation incubated for 72 hrs by MTT assay; assay type: functional, cell-based; details: MCF7, 72 h
HCT-116 = experiment: Anticancer activity against human HCT-116 cells assessed as inhibition of cell proliferation incubated for 72 hrs by MTT assay; assay type: functional, cell-based; details: HCT-116, 72 h
AGS = experiment: Anticancer activity against human AGS cells assessed as inhibition of cell proliferation incubated for 72 hrs by MTT assay; assay type: functional, cell-based
HeLa = experiment: Anticancer activity against human HeLa cells assessed as inhibition of cell proliferation incubated for 72 hrs by MTT assay; assay type: functional, cell-based
4T1 = experiment: Anticancer activity against mouse 4T1 cells assessed as inhibition of cell proliferation incubated for 72 hrs by MTT assay; assay type: functional, cell-based; details: 4T1, 72 h
[4] = Cytotoxicity against human GES1 cells assessed as inhibition of cell proliferation incubated for 72 hrs by MTT assay; assay type: toxicity, cell-based
MDA-MB-231 = experiment: Anticancer activity against human MDA-MB-231 cells assessed as inhibition of cell proliferation incubated for 72 hrs by MTT assay; assay type: functional, cell-based; details: MDA-MB-231, 72 h
[5] = Cytotoxicity against H9c2 cells assessed as inhibition of cell proliferation incubated for 72 hrs by MTT assay; assay type: toxicity, cell-based; details: rat
HGC-27 [6] = experiment: Antitumor activity against human HGC-27 cells xenografted in female BALB/c nude mouse model assessed as reduction in tumor growth at 15 mg/kg/day, ip administered for 21 days relative to control; assay type: functional; set-up: scale not given: the % may be the effect or the level left; details: time 21 day
HONE1 cell line = experiment: Anticancer activity against human HONE1 cell line assessed as inhibition of cell proliferation incubated for 72 hrs by MTT assay; assay type: functional, cell-based; details: HONE1, 72 h
MGC-803 = experiment: Anticancer activity against human MGC-803 cells assessed as inhibition of cell proliferation incubated for 72 hrs by MTT assay; assay type: functional, cell-based; details: MGC-803, 72 h
HGC-27 [7] = experiment: Antitumor activity against human HGC-27 cells xenografted in female BALB/c nude mouse model assessed as reduction in tumor weight at 15 mg/kg/day, ip administered for 21 days; assay type: functional, organism-based; details: time 21.0 day
[8] = biological target: Tyrosine-protein kinase BTK (Homo sapiens, UniProt Q06187); experiment: Inhibition of BTK (unknown origin)
Chain of Tyrosine-protein kinase BTK (Q06187 whole entry): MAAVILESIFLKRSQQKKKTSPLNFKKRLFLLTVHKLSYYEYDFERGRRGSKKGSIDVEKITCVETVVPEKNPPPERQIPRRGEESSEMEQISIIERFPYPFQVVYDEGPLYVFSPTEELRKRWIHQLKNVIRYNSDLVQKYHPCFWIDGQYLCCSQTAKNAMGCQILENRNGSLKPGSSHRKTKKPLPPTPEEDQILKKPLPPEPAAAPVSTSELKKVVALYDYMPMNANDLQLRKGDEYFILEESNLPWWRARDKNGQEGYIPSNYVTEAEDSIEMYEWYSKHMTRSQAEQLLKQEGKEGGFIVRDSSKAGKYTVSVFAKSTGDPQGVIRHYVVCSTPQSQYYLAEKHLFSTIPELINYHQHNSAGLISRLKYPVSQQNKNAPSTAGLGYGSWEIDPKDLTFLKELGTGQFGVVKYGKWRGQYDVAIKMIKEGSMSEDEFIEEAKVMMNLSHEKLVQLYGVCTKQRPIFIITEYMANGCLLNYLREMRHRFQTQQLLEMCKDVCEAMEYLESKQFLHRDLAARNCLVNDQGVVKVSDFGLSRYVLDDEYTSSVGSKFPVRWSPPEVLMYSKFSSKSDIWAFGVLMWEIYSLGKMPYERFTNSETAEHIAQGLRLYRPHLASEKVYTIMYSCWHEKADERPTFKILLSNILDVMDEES

Structure (SMILES) | IC50 (HCC827) [µM] | IC50 (CWR22R) [µM] | IC50 (DU-145) [µM] | IC50 (NCI-H1975) [µM] | IC50 (PC-9) [µM] | IC50 (A549) [µM] | IC50 (NCI-H460) [µM] | IC50 (PC-3) [µM] | further results
C=CS(=O)(=O)N1CCC(CNc2nc(N)nc(Nc3ccc(Oc4ccccc4)cc3)n2)CC1 | 29.3 | > 32 | > 32 | > 32 | > 32 | > 32 | > 32 | > 32 | –
C=CC(=O)N1CCC[C@@H](n2nc(-c3ccc(Oc4ccccc4)cc3)c3c(N)ncnc32)C1 [IBRUTINIB] | 0.1 | 26.7 | 5.3 | 5.6 | 3.1 | 17.6 | 12.7 | 21.1 | IC50 (C6661): 17 µM; IC50 at 72 h [1]: > 32 µM; IC50 (HGC-27 [2]): 16 µM; IC50 (HepG2): > 32 µM; IC50 at 72 h [3]: > 32 µM; IC50 (MCF7): 29.9 µM; IC50 (HCT-116): 17.7 µM; IC50 (AGS): 10.4 µM; IC50 (HeLa): 28.1 µM; IC50 (4T1): 9.3 µM; IC50 at 72 h [4]: 28.6 µM; IC50 (MDA-MB-231): 28.9 µM; IC50 at 72 h [5]: > 32 µM; Activity (HGC-27 [6]): 17.03%; IC50 (HONE1 cell line): 24.5 µM; IC50 (MGC-803): 9.2 µM; Activity (HGC-27 [7]): Active
C=CS(=O)(=O)N1CCC[C@@H](Nc2nc(N)nc(Nc3ccc(Oc4ccccc4)cc3)n2)C1 | 5.2 | > 32 | > 32 | 29.8 | > 32 | > 32 | > 32 | > 32 | –
C=CS(=O)(=O)N1CCC[C@@H](Nc2nc(N)nc(Nc3ccc(OCc4ccccc4)cc3)n2)C1 | > 32 | > 32 | 19 | > 32 | > 32 | > 32 | > 32 | > 32 | –
Cn1cc(Nc2nc(N)nc(-c3cccc(-n4ccc5cc(C6CC6)ccc5c4=O)c3CO)n2)cn1 | – | – | – | – | – | – | – | – | IC50 [8]: 0.0042 µM
C=CS(=O)(=O)N1CC[C@@H](Nc2nc(N)nc(Nc3ccc(Oc4ccccc4)cc3)n2)C1 | 12.6 | > 32 | 22.4 | > 32 | > 32 | > 32 | > 32 | > 32 | –
C=CS(=O)(=O)N1CCC[C@@H](Nc2nc(N)nc(Nc3cccc(OCc4ccccc4)c3)n2)C1 | 3 | 23.7 | 9.7 | 4.3 | 21.9 | 25 | 14.3 | 18.6 | IC50 (C6661): 18.9 µM; IC50 at 72 h [1]: > 32 µM; IC50 (HGC-27 [2]): 15.6 µM; IC50 (HepG2): > 32 µM; IC50 at 72 h [3]: > 32 µM; IC50 (MCF7): 18.4 µM; IC50 (HCT-116): 19.6 µM; IC50 (AGS): 9.2 µM; IC50 (HeLa): 14.5 µM; IC50 (4T1): 17.5 µM; IC50 at 72 h [4]: 13.9 µM; IC50 (MDA-MB-231): 12.1 µM; IC50 at 72 h [5]: > 32 µM; IC50 (HONE1 cell line): 14 µM; IC50 (MGC-803): 13.4 µM
